Measured values reported in patent US4777167A, “Pharmaceutically useful substituted thiacycloalkeno [3,2-b]pyridines, compositions and method of use” (Ortho Pharmaceutical Corporation, priority 1987, dated 1988).
Where “and” joins values, the source holds several entries; their conditions need not be identical. Identical values can stand only once. Like-named read-outs stand apart in the source and are kept apart here.

Experiments:
[1] = biological target: T1, calcium channels (Oryctolagus cuniculus, UniProt P15381); test: Inhibition of nitrendipine binding (3H-nitrendipine displacement, rabbit heart membranes); set-up: species or system rabbit (New Zealand white); details: 90 min, 4° C.
T1 construct: from tissue; host or cells: heart of female New Zealand white rabbits, membrane fraction (42,000×g pellet)
Procedure: (1) Inhibition of nitrendipine binding to calcium channels.
The assay for inhibition of nitrendipine binding follows the following procedure:
Female, New Zealand white rabbits (1-2 kg) are sacrificed by cervical dislocation, and the heart is immediately removed, cleaned, and chopped into small pieces. The tissue is homogenized in 5× volume of 0.05M Hepes buffer, pH 7.4. The homogenate is centrifuged at 4000×g for 10 minutes; the supernatant is recentrifuged at 42,000×g for 90 minutes. The resulting membrane pellet is resuspended (0.7 ml/g weight) in 0.05M Hepes, pH 7.4 and stored at -70° C. until used. Each tube of the binding assay contains ^3 H- nitrendipine (0.05-0.50 nM), buffer, membranes (0.10 ml), and test compound in a total volume of 1.0 ml. After 90 minutes at 4° C., the bound nitrendipine is separated from the unbound by filtration on Whatman GF/C fibers. After rinsing, the filters are dried and counted in a liquid scintillation counter.
Non-specific binding of ^3 H-nitrendipine (that amount bound in the presence of excess unlabelled nitrendipine) is subtracted from the total bound to obtain specifically bound radiolabeled nitrendipine. The amount of specifically bound nitrendipine in the presence of a test compound is compared to that amount bound in the absence of a compound. A percent displacement (or inhibition) can then be obtained.

[2] = test system: trachealis muscle; test: Inhibition of calcium dependent smooth muscle contraction (KCl-challenged trachea); format: cell-based, dog; details: Canis lupus familiaris; for inhibition at 2 µM: concentration 2.0 μM; for inhibition at 10 µM: concentration 10.0 μM; for inhibition at 0.5 µM: concentration 0.5 μM; for inhibition at 0.1 µM: concentration 0.1 μM; for inhibition at 0.2 µM: concentration 0.2 μM
Procedure: The test for inhibition of calcium dependent smooth muscle contraction is determined according to the following procedure:
Trachea from dogs sacrificed by excess KCl injection are stored overnight at 4° C. in oxygenated Krebs-Henseleit buffer. Tracheal rings, one cartilage segment wide (5-10 mm), are cut starting from the bronchial end. After cutting the cartilage, the trachealis muscle tissue is suspended in oxygenated Krebs-Henseleit buffer at 37° C. in a 25 ml tissue bath. After a 60 minutes equilibration period, the tissues are challenged with 10 μM carbachol. After 5 minutes the tissues are rinsed and allowed to rest 50 minutes. The tissues are then challenged with 50 mM KCl and, after 30 minutes, the contractions are quantitated. The tissues are then rinsed and reequilibrated for 50 minutes. Test compounds are then added for 10 minutes, and the tissue is rechallenged with 50 mMKcl. After 30 minutes, the contraction is recorded and used to determine the % inhibition of control.
The percent inhibition of smooth muscle contraction is calculated from response data before and after drug treatment. [formula] A rating is assigned to the compound depending upon the percent inhibition obtained.

[3] = test system: Aorta Muscle; test: Inhibition of aorta muscle contraction; format: cell-based; details: Table II; concentration 0.1 μM
[4] = Table I, read-out: Inhibition of Ca2+ dependent smooth muscle contraction % Inhibition
[5] = Table II, read-out: Inhibition Trachea Muscle Contraction % Inhibition

T1 sequence (P15381 whole entry, other chains not shown): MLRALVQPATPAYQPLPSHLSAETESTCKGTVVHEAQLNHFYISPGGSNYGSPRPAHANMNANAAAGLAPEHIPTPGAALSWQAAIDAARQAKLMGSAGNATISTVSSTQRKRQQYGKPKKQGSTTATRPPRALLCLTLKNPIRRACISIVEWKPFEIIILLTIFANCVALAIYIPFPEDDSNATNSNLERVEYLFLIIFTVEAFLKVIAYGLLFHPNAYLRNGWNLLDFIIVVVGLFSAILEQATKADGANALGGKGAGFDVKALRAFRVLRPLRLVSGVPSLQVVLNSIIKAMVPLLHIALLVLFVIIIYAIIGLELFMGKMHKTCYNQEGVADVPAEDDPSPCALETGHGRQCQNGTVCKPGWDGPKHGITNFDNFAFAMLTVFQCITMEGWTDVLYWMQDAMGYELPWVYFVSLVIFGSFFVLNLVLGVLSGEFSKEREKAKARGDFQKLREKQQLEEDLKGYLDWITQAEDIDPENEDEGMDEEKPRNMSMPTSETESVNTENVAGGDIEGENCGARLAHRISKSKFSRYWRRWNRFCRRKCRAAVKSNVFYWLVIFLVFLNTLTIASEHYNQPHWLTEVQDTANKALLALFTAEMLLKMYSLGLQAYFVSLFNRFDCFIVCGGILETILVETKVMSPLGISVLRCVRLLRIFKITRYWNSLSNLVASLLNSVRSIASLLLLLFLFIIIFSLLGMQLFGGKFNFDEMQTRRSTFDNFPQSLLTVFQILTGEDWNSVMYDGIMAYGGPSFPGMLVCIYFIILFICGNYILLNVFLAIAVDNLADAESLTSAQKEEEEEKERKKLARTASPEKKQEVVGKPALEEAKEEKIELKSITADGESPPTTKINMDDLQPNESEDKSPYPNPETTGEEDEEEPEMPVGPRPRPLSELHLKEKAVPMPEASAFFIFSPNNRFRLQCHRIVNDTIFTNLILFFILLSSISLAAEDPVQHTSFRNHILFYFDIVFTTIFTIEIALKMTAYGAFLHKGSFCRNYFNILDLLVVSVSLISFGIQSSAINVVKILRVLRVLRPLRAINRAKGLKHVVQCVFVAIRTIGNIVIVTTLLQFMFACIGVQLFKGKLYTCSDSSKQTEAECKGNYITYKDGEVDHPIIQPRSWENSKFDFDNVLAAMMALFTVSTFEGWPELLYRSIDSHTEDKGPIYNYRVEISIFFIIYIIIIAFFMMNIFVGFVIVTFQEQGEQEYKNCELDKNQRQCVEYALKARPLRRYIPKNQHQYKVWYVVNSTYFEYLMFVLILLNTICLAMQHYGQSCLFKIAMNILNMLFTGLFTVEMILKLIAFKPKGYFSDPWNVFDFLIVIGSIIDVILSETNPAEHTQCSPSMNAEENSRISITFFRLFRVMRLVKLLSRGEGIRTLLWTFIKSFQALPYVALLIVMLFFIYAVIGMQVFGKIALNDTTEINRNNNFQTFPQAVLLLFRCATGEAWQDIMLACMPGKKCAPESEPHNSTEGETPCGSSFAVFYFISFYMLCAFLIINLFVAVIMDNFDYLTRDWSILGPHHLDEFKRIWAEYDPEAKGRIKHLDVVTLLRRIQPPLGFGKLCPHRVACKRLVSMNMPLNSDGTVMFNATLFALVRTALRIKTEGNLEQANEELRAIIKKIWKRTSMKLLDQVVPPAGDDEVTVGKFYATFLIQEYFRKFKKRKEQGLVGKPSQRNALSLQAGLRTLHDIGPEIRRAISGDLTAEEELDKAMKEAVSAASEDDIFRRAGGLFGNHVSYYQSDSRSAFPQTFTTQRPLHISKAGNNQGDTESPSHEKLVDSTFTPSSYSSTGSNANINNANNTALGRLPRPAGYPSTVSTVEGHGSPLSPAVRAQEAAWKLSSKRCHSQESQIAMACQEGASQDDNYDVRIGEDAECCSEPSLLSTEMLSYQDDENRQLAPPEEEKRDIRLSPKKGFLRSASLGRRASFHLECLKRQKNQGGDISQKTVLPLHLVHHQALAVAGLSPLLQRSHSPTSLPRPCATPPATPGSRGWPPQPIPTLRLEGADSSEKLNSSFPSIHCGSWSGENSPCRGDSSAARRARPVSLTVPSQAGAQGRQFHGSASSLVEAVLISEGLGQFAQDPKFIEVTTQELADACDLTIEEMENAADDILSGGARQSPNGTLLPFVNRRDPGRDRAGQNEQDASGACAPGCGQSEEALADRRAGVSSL
T1 sequence (P13806 27-960 partner limits assumed, other chains not shown): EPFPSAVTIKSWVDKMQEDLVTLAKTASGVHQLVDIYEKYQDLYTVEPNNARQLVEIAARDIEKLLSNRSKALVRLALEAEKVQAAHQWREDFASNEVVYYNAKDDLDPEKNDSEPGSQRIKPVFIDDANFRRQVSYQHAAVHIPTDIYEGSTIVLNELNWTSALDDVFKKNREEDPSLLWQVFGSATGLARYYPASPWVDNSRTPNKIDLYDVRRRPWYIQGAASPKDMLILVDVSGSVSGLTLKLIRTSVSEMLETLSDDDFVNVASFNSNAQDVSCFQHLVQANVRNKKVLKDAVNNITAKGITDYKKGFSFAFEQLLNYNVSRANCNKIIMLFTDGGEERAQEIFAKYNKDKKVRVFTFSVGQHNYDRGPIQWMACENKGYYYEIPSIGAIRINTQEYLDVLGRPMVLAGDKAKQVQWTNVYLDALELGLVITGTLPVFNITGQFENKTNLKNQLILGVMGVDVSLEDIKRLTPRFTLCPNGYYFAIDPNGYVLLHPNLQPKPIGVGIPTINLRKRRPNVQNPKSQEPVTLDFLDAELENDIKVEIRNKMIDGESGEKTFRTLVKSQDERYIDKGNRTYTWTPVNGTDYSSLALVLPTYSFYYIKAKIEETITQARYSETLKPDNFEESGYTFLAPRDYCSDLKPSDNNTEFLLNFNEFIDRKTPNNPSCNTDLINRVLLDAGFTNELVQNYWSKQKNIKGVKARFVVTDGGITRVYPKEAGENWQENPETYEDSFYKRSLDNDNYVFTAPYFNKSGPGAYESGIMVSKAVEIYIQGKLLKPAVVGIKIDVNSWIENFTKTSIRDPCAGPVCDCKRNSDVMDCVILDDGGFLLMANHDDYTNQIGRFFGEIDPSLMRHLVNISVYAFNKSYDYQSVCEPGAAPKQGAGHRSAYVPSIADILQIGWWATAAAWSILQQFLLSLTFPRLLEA
T1 sequence (P13806 961-1106 partner limits assumed, other chains not shown): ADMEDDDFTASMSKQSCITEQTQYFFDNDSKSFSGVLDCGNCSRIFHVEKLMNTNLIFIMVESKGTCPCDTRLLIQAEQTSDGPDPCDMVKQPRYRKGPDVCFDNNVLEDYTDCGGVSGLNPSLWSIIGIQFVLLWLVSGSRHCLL

## CC1=C(C(=O)OCCN(C)CCc2ccccc2)C(c2cccc(Cl)c2Cl)C2=C(CCCCCS2(=O)=O)N1 (stereo not shown)
[1]; Table II
  IC50: 149 nM
[2]; Table II, concentration 1.0 μM
  inhibition at 1 µM: 57%
[3]
  inhibition at 0.1 µM: 67%

## CC1=C(C(=O)OCCN(C)Cc2ccccc2)C(c2cccc([N+](=O)[O-])c2)C2=C(CCS2(=O)=O)N1 (stereo not shown) [2 CH2 CH2 NCH3 CH2 C6 H5 3-NO2C6 H4, N-Benzyl-N-methylaminoethyl 2,3,4,7-tetrahydro-5-methyl-7-(3-nitrophenyl)-1,1-dioxothieno[3,2-b]pyridine-6-carboxylate]
[1]; Table I
  IC50: 1000 nM
[2]; Table I, concentration 5.0 μM, read-out: Inhibition of Ca2+ dependent smooth muscle contraction % Inhibition
  inhibition at 5 µM: 65%

## CCOC(=O)C1=C(C)NC2=C(C1c1c(F)c(F)c(F)c(F)c1F)S(=O)(=O)CC2 (stereo not shown) [2 CH2 CH3 C6 F5]
[1]; Table I
  IC50: 560 nM
[2]; [4]
  inhibition at 2 µM: 48%

## COC(=O)C1=C(C)NC2=C(C1c1ccccc1[N+](=O)[O-])S(=O)(=O)CC2 (stereo not shown) [2 CH3 2-NO2C6 H4, Methyl 2,3,4,7,-tetrahydro-5-methyl-7-(2-nitrophenyl)-1,1-dioxothieno[3,2-b]pyridine-6-carboxylate]
[1]; Table I
  IC50: 1350 nM
[2]; [4]
  inhibition at 2 µM: 63%

## COC(=O)C1=C(C)NC2=C(C1c1cccc(C#N)c1)S(=O)(=O)CC2 (stereo not shown) [2 CH3 3-CNC6 H4]
[1]; Table I
  IC50: 2000 nM

## COC(=O)C1=C(C)NC2=C(C1c1cccc(Cl)c1)S(=O)(=O)CC2 (stereo not shown) [2 CH3 3-ClC6 H4]
[1]; Table I
  IC50: 930 nM

## COC(=O)C1=C(C)NC2=C(C1c1cccc([N+](=O)[O-])c1)S(=O)(=O)CC2 (stereo not shown) [2 CH3 3-NO2C6 H4]
[1]; Table I
  IC50: 700 nM
[2]; [4]
  inhibition at 10 µM: 76%

## COC(=O)C1=C(C)NC2=C(C1c1c(F)c(F)c(F)c(F)c1F)S(=O)(=O)CC2 (stereo not shown) [2 CH3 C6 F5]
[1]; Table I
  IC50: 150 nM
[2]; [4]
  inhibition at 2 µM: 47%

## CC1=C(C(=O)OCc2ccccc2)C(c2ccccc2[N+](=O)[O-])C2=C(CCCS2(=O)=O)N1 (stereo not shown) [3 CH2 C6 H5 2-NO2C6 H4]
[1]; Table I
  IC50: 3400 nM
[2]; [4]
  inhibition at 10 µM: 69%

## CC1=C(C(=O)OCCN(C)Cc2ccccc2)C(c2cccc([N+](=O)[O-])c2)C2=C(CCCS2(=O)=O)N1 (stereo not shown) [3 CH2 CH2 NCH3 CH2 C6 H5 3-NO2C6 H4, N-Benzyl-N-methyl-2-aminoethyl 2,3,4,8-tetrahydro-6-methyl-8-(3-nitrophenyl)-1,1-dioxo-5H-thiopyrano[3,2-b]pyridine-7-carboxylate Hemioxalate]
[1]; Table I
  IC50: 1850 nM
[2]; [4]
  inhibition at 2 µM: 46%

## CCOC(=O)C1=C(C)NC2=C(C1c1ccccc1[N+](=O)[O-])S(=O)(=O)CCC2 (stereo not shown) [3 CH2 CH3 2-NO2C6 H4]
[1]; Table I
  IC50: 1500 nM
[2]; [4]
  inhibition at 10 µM: 75%

## CCOC(=O)C1=C(C)NC2=C(C1c1cccc([N+](=O)[O-])c1)S(=O)(=O)CCC2 (stereo not shown) [3 CH2 CH3 3-NO2C6 H4, Ethyl 3,4,5,8-tetrahydro-6-methyl-8-(3-nitrophenyl)-1,1-dioxo-2H-thio-pyrano[3,2-b]pyridine-7-carboxylate]
[1]; Table I
  IC50: 170 nM
[2]; [4]
  inhibition at 10 µM: 69%

## COC(=O)C1=C(C)NC2=C(C1c1ccccc1[N+](=O)[O-])S(=O)(=O)CCC2 (stereo not shown) [3 CH3 2-NO2C6 H4]
[1]; Table I
  IC50: 890 nM
[2]; [4]
  inhibition at 10 µM: 84%

## COC(=O)C1=C(C)NC2=C(C1c1cccc([N+](=O)[O-])c1)S(=O)(=O)CCC2 (stereo not shown) [3 CH3 3-NO2C6 H4, Methyl 3,4,5,8,-tetrahydro-6-methyl-8-(3-nitrophenyl)-1,1-dioxo-2H-thiopyrano-[3,2-b]pyridine-7-carboxylate]
[1]; Table I
  IC50: 160 nM
[2]; [4]
  inhibition at 10 µM: 57%

## COC(=O)C1=C(C)NC2=C(C1c1c(F)c(F)c(F)c(F)c1F)S(=O)(=O)CCC2 (stereo not shown) [3 CH3 C6 F5]
[1]; Table I
  IC50: 400 nM
[2]; [4]
  inhibition at 0.5 µM: 46%

## CC1=C(C(=O)OC2CCCSC2)C(c2cccc(Cl)c2Cl)C2=C(CCCCS2(=O)=O)N1 (stereo not shown) [4 2,3-Cl2C6 H3 drawing 14]
[2]; [5]
  inhibition at 2 µM: 54%

## CC1=C(C(=O)OCCN(C)Cc2ccccc2)C(c2cccc(Cl)c2Cl)C2=C(CCCCS2(=O)=O)N1 (stereo not shown) [4 2,3-Cl2C6 H3, N-Benzyl-N-methylaminoethyl 9-(2,3-dichlorophenyl)-2,4,5,6,9-hexahydro-7-methyl-1,1-dioxothiacyclohepteno[3,2-b]pyridine-8-carboxylate]
[1]; Table II
  IC50: 100 nM
[2]; [5]
  inhibition at 0.1 µM: 62%
[3]
  inhibition at 0.1 µM: 83%

## CC1=C(C(=O)OCCN(C)Cc2ccccc2)C(c2cc(F)ccc2F)C2=C(CCCCS2(=O)=O)N1 (stereo not shown) [4 2,5-F2C6 H3]
[1]; Table II
  IC50: 120 nM
[2]; [5]
  inhibition at 0.1 µM: 43%
[3]
  inhibition at 0.1 µM: 47%

## CC1=C(C(=O)OCCN(C)Cc2ccccc2)C(c2ccccc2OC(F)F)C2=C(CCCCS2(=O)=O)N1 (stereo not shown) [4 2-OCHF2C6 H4, N-Benzyl-N-methylaminoethyl 9-(2-cifluoromethoxyphenyl)-2,4,5,6,9-hexahydro-7-methyl-1,1-dioxothiacyclohepteno[3,2-b]pyridine-8-carboxylate]
[1]; Table II
  IC50: 72 nM
[2]; [5]
  inhibition at 0.1 µM: 54%

## CC1=C(C(=O)OC2CCCSC2)C(c2c(F)c(F)c(F)c(F)c2F)C2=C(CCCCS2(=O)=O)N1 (stereo not shown) [4 C6 F5 drawing 13]
[2]; [5]
  inhibition at 2 µM: 53%

## CC1=C(C(=O)OCCN(C)Cc2ccccc2)C(c2cccc([N+](=O)[O-])c2)C2=C(CCCCS2(=O)=O)N1 (stereo not shown) [4 CH2 CH2 NCH3 CH2 C6 H5 3-NO2C6 H4, N-Benzyl-N-methylaminoethyl 2,4,5,6,9-hexahydro-7-methyl-9-(3-nitrophenyl)-1,1-dioxothiacyclohepteno[3,2-b]pyridine-8-carboxylate]
[1]; Table I
  IC50: 130 nM
[2]; [4]
  inhibition at 0.2 µM: 68%

## CC1=C(C(=O)OCCN(C)Cc2ccccc2)C(c2c(F)c(F)c(F)c(F)c2F)C2=C(CCCCS2(=O)=O)N1 (stereo not shown) [4 CH2 CH2 NCH3 CH2 C6 H5 C6 F5, N-Benzyl-N-methylaminoethyl 9-(2,3,4,5,6-pentafluorophenyl)-2,3,4,5,6,9-hexahydro-7-methyl-1,1-dioxothiacyclohepteno[3,2-b]pyridine-8-carboxylate]
[1]; Table I
  IC50: 35 nM
[2]; [4]
  inhibition at 0.2 µM: 74%

## CCOC(=O)C1=C(C)NC2=C(C1c1c(F)c(F)c(F)c(F)c1F)S(=O)(=O)CCCC2 (stereo not shown) [4 CH2 CH3 C6 F5, Ethyl 9-(2,3,4,5,6-pentafluorophenyl)-2,3,4,5,6,9-hexahydro-7-methyl-1,1-dioxothiacyclohepteno[3,2-b]pyridine-8-carboxylate]
[1]; Table I
  IC50: 28 nM
[2]; [4]
  inhibition at 0.5 µM: 95%

## COC(=O)C1=C(C)NC2=C(C1c1cccc([N+](=O)[O-])c1)S(=O)(=O)CCCC2 (stereo not shown) [4 CH3 3-NO2C6 H4]
[1]; Table I
  IC50: 27 nM and 39 nM
[2]; [4]
  inhibition at 2 µM: 94%

## CCOC(=O)C1=C(C)NC2=C(C1c1cccc([N+](=O)[O-])c1)S(=O)(=O)CCCC2 (stereo not shown) [4 CH 2 CH3 3-NO2C6 H4, Ethyl 2,3,4,5,6,9-hexahydro-7-methyl-9-(3-nitrophenyl)-1,1-dioxothiacyclohepteno[3,2-b]pyridine-8-carboxylate]
[1]; Table I
  IC50: 44 nM
[2]; [4]
  inhibition at 2 µM: 96%

## CC1=C(C(=O)OCCN(C)Cc2ccccc2)C(c2ccccc2[N+](=O)[O-])C2=C(CCCCCS2(=O)=O)N1 (stereo not shown) [5 2-NO2C 6 H4 CH2 CH2 NCH3 CH2 C6 H5]
[2]; [5]
  inhibition at 0.1 µM: 69%
[3]
  inhibition at 0.1 µM: 73%

## CCOC(=O)C1=C(C)NC2=C(C1c1cccc([N+](=O)[O-])c1)S(=O)(=O)CCCCC2 (stereo not shown) [5 CH2 CH3 3-NO2C6 H4]
[1]; Table I
  IC50: 5.5 nM
[2]; [4]
  inhibition at 0.1 µM: 71%

## CCOC(=O)C1=C(C)NC2=CCCCCS(=O)(=O)C2C1c1cccc([N+](=O)[O-])c1 (stereo not shown) [Ethyl 3,4,5,7,10,10a-hexahydro-8-methyl-10-(3-nitrophenyl)-1,1-dioxo-2H-thiacycloocteno[3,2-b]pyridine-9-carboxylate]
[1]; Table I
  IC50: 270 nM
[2]; [4]
  inhibition at 2 µM: 53%

## COC(=O)C1=C(C)NC2(O)CCS(=O)(=O)C2C1c1ccccc1[N+](=O)[O-] (stereo not shown) [Methyl 2,3,3a,4,7,7a-hexahydro-3a-hydroxy-5-methyl-7-(2-nitrophenyl)-1,1-dioxo-thieno[3,2-b]pyridine-6-carboxylate]
[2]; [4]
  inhibition at 2 µM: 26%

## CCOC(=O)C1=C(C)NC2=C(C1c1cccnc1SC)S(=O)(=O)CCCCC2 (stereo not shown) [drawing 8 CH2 CH3]
[2]; Table II, concentration 0.3 μM
  inhibition at 0.3 µM: 79%
[3]
  inhibition at 0.1 µM: 42%
